In patent publication US10259824B2, “Complement C3d-binding compounds” (The Regents of the University of California, priority 2015, dated 2019):

Legend:
C3d [1] = molecular target: T1, C3d (Homo sapiens, UniProt P01024); test: Fluorescence of molecules in the presence of C3d; settings: subsaturating concentrations of C3d
T1 construct: Further cleavage events yield C3d (the terminal cleavage product of C3); purchased Complement Technology, Inc
Experimental: The fluorescence properties of topperforming molecules in the presence of C3d were also evaluated. Often, when small molecule fluorophores bind to their targets, fluorescence may be quenched, an undesirable property for potential diagnostic molecules. […] Remarkably, Mol4 underwent drastic fluorescence enhancement in the presence of C3d, with up to 5-fold higher fluorescence at subsaturating concentrations of C3d (FIG. 14).

[2] = Absorption and fluorescence spectroscopy / fluorescence quantum yield; format: physicochemical; settings: for Emission Peak / Excitation Peak / Quantum Yield: acetonitrile
Experimental: Absorption and fluorescence spectroscopy. Stock solutions of C3d-binding compounds (in DMSO) were diluted in spectroscopic grade acetonitrile (Fisher Scientific). The concentration of each sample was adjusted such that the absorption at the excitation wavelength was below 0.2, after correcting with blank acetonitrile solutions containing the same concentration of DMSO as the measured samples. The UV/visible absorption spectra (260-700 nm) were recorded on a JASCO V-670 spectrophotometer (Tokyo, Japan), using quartz cuvettes (1.0 cm path length, 3.0 ml total volume). The emission spectra were collected with a FluoroLog-3 spectrofluorometer (Horiba-Jobin-Yvon, Edison, N.J., USA). All samples were purged with argon prior to the measurements and all measurements were performed at room temperature.
Fluorescence quantum yield measurements. Fluorescence quantum yield values for the small molecules were calculated using one or more standard quantum yield fluorophores. Values were calculated according to Eq. 1.
where R and S subscripts denote reference compound and sample, respectively, Φfl is quantum yield, In is the total integrated fluorescence spectrum intensity obtained from integration of the emission spectra, An is sample absorbance at the excitation wavelength, and nn is the refractive index of the solvent. Reference compounds used for calculation included naphthalene (ΦR=0.23 for EtOH), anthracene (ΦR=0.27 for EtOH), and coumarin 1 (ΦR=0.73 for EtOH). Standard molecule quantum yield measurements were performed in acetonitrile, and solvent-dependent measurements were performed in spectroscopic grade methanol, ethanol, 1-propanol, 1-butanol, ethylene glycol, glycerol, and phosphate buffered saline.
To test the fluorescence dependence on the media viscosity, a protic media was used, i.e., an aqueous buffer and six alcohols with widely varying viscosities.

C3d [3] = molecular target: T1, C3d; test: Microscale thermophoresis direct binding; settings: 10 nM NT647-labeled C3d, MST buffer with 5% DMSO
Experimental: Microscale thermophoresis. Direct binding of molecules was assayed using a Monolith NT.115 (NanoTemper Technologies GmbH). Purified C3d (Complement Technology, Inc.) was labeled with NT647 dye using the kit from NanoTemper Technologies, and dissolved to 10 nM in MST buffer (50 mM Tris-HCl, 150 mM NaCl, 10 mM MgCl2, 0.05% Tween 20) containing 5% DMSO. A dilution series of each molecule was prepared in MST buffer containing 5% DMSO, and preincubated with 10 nM NT647-labeled C3d for 10 minutes at room temperature in the dark. Samples were loaded into hydrophilic capillary tubes, and measurements were obtained. For each molecule, reported KD values and binding curves represent results from three independent experiments.
Experimental evaluation of C3d binding. In order to validate the hits from vHTS, binding of 49 selected compounds were measured using microscale thermophoresis. All molecules were tested in a concentration-dependent manner; starting at a concentration of 200 μM (most molecules were poorly soluble in aqueous solution above this concentration). Ten molecules were identified that bound to C3d, with binding affinities (KD) ranging between 25-500 μM. The molecular structures and binding curves for top molecules are shown in FIG. 6, and other binding compounds are shown in FIG. 9.
Microscale Thermophoresis: Direct binding of a small number of selected molecules was tested using microscale thermophoresis. […] We used Efb, a protein secreted from Staphylococcus aureus that binds to C3d, as a positive control for binding (KD=3 nM) (see FIG. 11).

[4] = for EtOH; standard fluorophore; cited from earlier work
C3d-CR2 interaction = molecular target: T2, C3d-CR2 interaction (Homo sapiens, UniProt P01024); test: Competitive binding ELISA, C3d-CR2; settings: plates coated with CR2
T2 construct: Further cleavage events yield C3d (the terminal cleavage product of C3)
Experimental: (§1) Competitive binding ELISA: 50 molecules selected from virtual screening were tested for competitive binding against C3d and its interactions with endogenous protein CR2 and bacterial protein Ecb (homolog to Efb) from Staphylococcus aureus. ELISA plates were coated with CR2 or Ecb for 1 hour at 37° C. Plates were washed and blocked, then incubated with serial dilutions of C3d, with and without test molecules. Plates were incubated with a mouse monoclonal antibody against C3d, followed by a horseradish peroxidase-labeled anti-mouse IgG antibody. The amount of labeled antibody (and in turn, C3d) bound was detected via reaction with a substrate solution, followed by spectrophotometric measurement.

C3d-Ecb interaction = molecular target: T3, C3d-Ecb interaction (Homo sapiens, UniProt P01024); test: Competitive binding ELISA, C3d-Ecb; parameters: species or system Staphylococcus aureus; settings: plates coated with Ecb
T3 construct: Further cleavage events yield C3d (the terminal cleavage product of C3)
Experimental: as §1

[5] = aqueous buffer and six alcohols

T3 sequence (P01024 1002-1303 limits assumed): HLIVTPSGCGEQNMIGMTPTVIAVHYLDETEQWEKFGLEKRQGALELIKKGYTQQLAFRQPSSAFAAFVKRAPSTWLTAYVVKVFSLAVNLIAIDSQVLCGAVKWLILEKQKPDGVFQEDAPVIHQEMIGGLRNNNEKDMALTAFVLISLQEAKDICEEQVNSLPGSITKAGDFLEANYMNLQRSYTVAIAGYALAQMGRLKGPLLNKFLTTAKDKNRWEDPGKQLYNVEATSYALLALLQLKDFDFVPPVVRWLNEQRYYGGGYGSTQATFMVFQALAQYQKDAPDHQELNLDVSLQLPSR
T2 sequence (P01024 1002-1303 limits assumed): as above
T1 sequence (P01024 1002-1303 limits assumed): as above

Emission Peak [2] [nm] | Excitation Peak [2] | Quantum Yield [2] | Kd (C3d [3]) [µM] | SMILES | also measured
 |  |  |  | O=C(Nc1cccc(-c2cc3ccccc3[nH]2)c1)C1CCN(C(=O)C2CC23CCC3)CC1 (stereo not shown) [Mol B4] | fluorescence enhancement in the presence of C3d (C3d [1]): up to 5 fold
380 | 315 nm | 0.560 | 29 ± 8 | O=C(Nc1cccc(-c2cc3ccccc3[nH]2)c1)C1CCN(C(=O)C2CC23CCC3)CC1 (stereo not shown) [Mol 4] | 
 |  |  |  | c1ccc2ccccc2c1 [naphthalene] | reference quantum yield ΦR [4]: 0.23
 |  |  |  | CC1Sc2ccc(C(=O)NNC(=O)c3cc(-c4ccco4)nc4ccccc34)cc2NC1=O (stereo not shown) [Mol B22] | inhibition of C3d-CR2 interaction (C3d-CR2 interaction): inhibit; inhibition of C3d-Ecb interaction (C3d-Ecb interaction): inhibit
 |  |  | 77 | O=C(Nc1ccc(C(=O)N2CCN(Cc3nc4sc5c(c4c(=O)[nH]3)CCCC5)CC2)s1)C1CC1 [Mol 50] | 
425 | 320 nm | 0.017 | 132 ± 28 | O=C(Cc1cccc(F)c1)Nc1ccc(N2CCC(NCc3ccc4ncccc4c3)CC2)cc1 [Mol 36] | 
 |  |  |  | Cc1ccc(NC(=O)Cn2nnc(C(=O)Nc3ccc(C)cc3C)c2N)c(C)c1 [Mol B47] | inhibition of C3d-CR2 interaction (C3d-CR2 interaction): only inhibits the C3d-Ecb interaction; inhibition of C3d-Ecb interaction (C3d-Ecb interaction): inhibits
 |  |  |  | CCN(CC)c1ccc2c(C)cc(=O)oc2c1 [coumarin 1] | reference quantum yield ΦR [4]: 0.73
390 | 335 nm | 0.011 | 45 ± 15 | O=C(NC1CCCc2ccccc21)c1ccc(CN2CCN(CC=Cc3ccccc3)CC2)[nH]c1=O (stereo not shown) [Mol 42] | 
 |  |  |  | c1ccc2cc3ccccc3cc2c1 [anthracene] | reference quantum yield ΦR [4]: 0.27
405 | 310 nm | 0.001 | 45 ± 13 | O=C(Nc1nc2ccccc2[nH]1)c1ccc(CNS(=O)(=O)c2ccc(F)c(F)c2F)cc1 [Mol 11] | 
 |  |  |  | Cc1c(-c2ccc(F)cc2)[nH]c2ccc(CNC(=O)c3cc(=O)[nH]c(=O)[nH]3)cc12 [Mol B16] | dependence of Φfl on solvent polarity [2, 5]: does not exhibit any dependence on solvent polarity; emission quantum yield at high media viscosity ([2]; media viscosity about 1,000 cP, protic media): ~0.015; emission quantum yield at low media viscosity ([2]; media viscosity about <1 cP, protic media): about 0.002
 |  |  |  | C[C@@H](Oc1ccc2[nH]c3ccccc3c(=O)c2c1)C(=O)NC(=O)NC12CC3CC(CC(C3)C1)C2 [Mol B17] | Quantum Yield ([2]; listed as Mol17): close to unity
385 | 310 nm | 0.002 | 27 ± 5 | Cc1c(-c2ccc(F)cc2)[nH]c2ccc(CNC(=O)c3cc(=O)[nH]c(=O)[nH]3)cc12 [Mol 16] | 
500 | 390/405 | 0.984 | 116 ± 41 | C[C@@H](Oc1ccc2[nH]c3ccccc3c(=O)c2c1)C(=O)NC(=O)NC12CC3CC(CC(C3)C1)C2 [Mol 17] | 
 |  |  |  | O=C(NC1CCCc2ccccc21)c1ccc(CN2CCN(CC=Cc3ccccc3)CC2)[nH]c1=O (stereo not shown) [Mol B42] | dependence of Φfl on media viscosity [2, 5]: does not manifest viscosity dependence; dependence of Φfl on solvent polarity [2, 5]: about an order of magnitude increase in Φfl

SMILES | Emission Peak [2] [nm] | Excitation Peak [2] | Quantum Yield [2] | Kd (C3d [3]) [µM] | also measured
CC1Sc2ccc(C(=O)NNC(=O)c3cc(-c4ccco4)nc4ccccc34)cc2NC1=O (stereo not shown) [Mol 22] | 455 | 355 nm | 0.044 | 183 ± 81 | 
Cc1ccc(NC(=O)CSc2nnc3ccc(C(=O)Nc4cccc(F)c4)cn23)c(C)c1 [Mol 35] | 460 | 275 nm | 0.001 | 417 ± 171 | inhibition of C3d-CR2 interaction (C3d-CR2 interaction): inhibit; inhibition of C3d-Ecb interaction (C3d-Ecb interaction): inhibit
